From EP0373195B1, “COMPOSITION FOR INCREASING MELANIN CONTENT OF MELANOCYTES IN-VIVO AND IN-VITRO AND METHODS FOR THE IN-VITRO USE THEREOF” (TRUSTEES OF BOSTON UNIVERSITY, priority 1988, dated 1989)

Columns and labels:
[1] = system: human melanocytes; assay: Dendricity (morphology) of cultured human melanocytes; type: cell-based
Procedure: In certain instances, phase contrast micrographs were taken using an inverted microscope after the cultures were washed once with phosphate buffered saline.
(§1) A first experimental series was performed which utilized human melanocytes combined with the preferred DAG, 1-oleoyl-2-acetyl-glycerol, selected for its efficiency of intercalating into melanocyte membranes. Neonatal foreskins obtained within two hours of elective circumcision were the source of human melanocytes. The epidermis was separated from the dermis after overnight incubation in 0.25% trypsin. Melanocytes were established in primary culture according to the procedure of Gilchrest et al. [J. Invest. Dermatol. 83:370-376 (1984)]. The preferred DAG was combined with human melanocytes in complete melanocyte medium and incubated together for a period of 6 days at 37°C.
(§2) A second experimental series was conducted in which the cultured human melanocytes were first pretreated with tetradecanoyl phorbol-13-acetate (hereinafter "TPA") at a concentration of 100 nM. Initially, the human melanocytes were obtained and grown as previously described. Subsequently, the cultured human melanocytes were combined with 100 nM of TPA in melanocyte medium and incubated at 37°C for 24 hours. The DAG was then added and the culture incubated again for 6 days. The melanin content of the cells was then evaluated in accordance with the procedure as previously described herein.

[2] = system: human melanocytes; assay: Melanocyte bioassay: cell number / proliferation of cultured human melanocytes; type: cell-based
Procedure: (§3) Melanocytes were seeded at 2 x 10⁴ cells per 35 mm dish and combined with KPGM supplemented with 2% FBS and 100 ug/ml of BHE, now designated as complete melanocyte medium. After 24 hours incubation at 37 C, the grown melanocyte cultures, in duplicate or triplicate, received one of the following: free complete melanocyte medium; or supplemented whole KDCM. Each melanocyte culture was then incubated for 6-7 days at 37 C. Subsequently, each melanocyte culture was harvested and the cell number per dish empirically determined. Each melanocyte culture was washed with a 0.4 mM EDTA in PBS; treated with 1 ml of a mixture containing 0.13% trypsin and 0.2 mM EDTA; then incubated approximately 10 minutes at 37 C; followed by addition of 1 ml of PBS. Subsequently, a 0.5 ml aliquot of each resulting suspension was diluted to 10 ml total volume using isotonic saline and processed using a particle counter (Model ZM, Colter Science).
as §1, §2

[3] = system: S91 melanoma cells; assay: Melanin content of S91 melanoma cells in culture; type: cell-based, murine; conditions: DMEM with 2% FBS, 37°C, 7 days
Procedure: To determine melanin content, the remaining suspension was centrifuged for 5 minutes in a microcentrifuge; the supernatant discarded; and the resulting cell pellet dissolved in 0.1 ml of a 1 M NaOH which was subsequently diluted with 0.4 ml of water. Melanin concentration was calculated by determination of optical density at 475 nanometers; and values extrapolated by comparison with a standard curve of determinations for synthetic melanin, a measurement of melanogenesis which correlates extremely well with ¹⁴C-DOPA incorporation and with tyrosinase activity [Friedmann and Gilchrest, J. Cell. Physiol. 133:88-94 (1987)]. Melanin values were expressed as total melanin per culture; or as melanin content per cell; or as percent of untreated controls.
This experimental series was performed to evaluate the effect of a DAG on melanocytes derived from animal sources, rather than humans. In this experimental series, murine S91 melanoma cells were grown and maintained in culture using conventional techniques [Friedmann and Gilchrest, J. Cell. Physiol. 133:88-94 (1987)]. The grown S91 melanoma cells were then combined with 100 »M of the preferred DAG, 1-oleoyl-2-acetyl-glycerol; or with 100 »M of 3-isobutyl-1-methylxanthine (IBMX). Each chemical agent was combined with the S91 melanoma cells in Dulbecco's […] Eagle's Medium containing 2% FBS at 37°C for 7 days. […]

[4] = system: S91 melanoma cells; assay: Proliferation of S91 melanoma cells in culture; type: cell-based, murine; conditions: DMEM with 2% FBS, 37°C, 7 days
Procedure: as §3
This experimental series was performed to evaluate the effect of a DAG on melanocytes derived from animal sources, rather than humans. In this experimental series, murine S91 melanoma cells were grown and maintained in culture using conventional techniques [Friedmann and Gilchrest, J. Cell. Physiol. 133:88-94 (1987)]. […]

[5] = system: human melanocytes; assay: Melanocyte bioassay: melanin content of cultured human melanocytes; type: cell-based; conditions: for melanization / melanin content per human melanocyte (Fig. 3): DAG added after pretreatment with 100 nM TPA for 24 hours, then 6 days
Procedure: Melanocytes were seeded at 2 x 10^4 cells per 35 mm dish and combined with KPGM supplemented with 2% FBS and 100 ug/ml of BHE, now designated as complete melanocyte medium. After 24 hours incubation at 37 C, the grown melanocyte cultures, in duplicate or triplicate, received one of the following: free complete melanocyte medium; or supplemented whole KDCM. Each melanocyte culture was then incubated for 6-7 days at 37 C. Subsequently, each melanocyte culture was harvested and the cell number per dish empirically determined. Each melanocyte culture was washed with a 0.4 mM EDTA in PBS; treated with 1 ml of a mixture containing 0.13% trypsin and 0.2 mM EDTA; then incubated approximately 10 minutes at 37 C; followed by addition of 1 ml of PBS. Subsequently, a 0.5 ml aliquot of each resulting suspension was diluted to 10 ml total volume using isotonic saline and processed using a particle counter (Model ZM, Colter Science). To determine melanin content, the remaining suspension was centrifuged for 5 minutes in a microcentrifuge; the supernatant discarded; and the resulting cell pellet dissolved in 0.1 ml of a 1 M NaOH which was subsequently diluted with 0.4 ml of water. Melanin concentration was calculated by determination of optical density at 475 nanometers; and values extrapolated by comparison with a standard curve of determinations for synthetic melanin, a measurement of melanogenesis which correlates extremely well with 14C-DOPA incorporation and with tyrosinase activity [[…] and […]. Cell. Physiol. 133:88-94 (1987)]. Melanin values were expressed as total melanin per culture; or as melanin content per cell; or as percent of untreated controls. […] Neonatal foreskins obtained within two hours of elective circumcision were the source of human melanocytes. The epidermis was separated from the dermis after overnight incubation in 0.25% trypsin. Melanocytes were established in primary culture according to the procedure of […] et al. [J. Invest. Dermatol. 83:370-376 (1984)]. The preferred DAG was combined with human melanocytes in complete melanocyte medium and incubated together for a period of 6 days at 37°C. […] At an optimal concentration of 100 »M, this DAG produced an average of a 4 fold increase in cellular melanin content per cell over the untreated control. […] Initially, the human melanocytes were obtained and grown as previously described. Subsequently, the cultured human melanocytes were combined with 100 nM of TPA in melanocyte medium and incubated at 37°C for 24 hours. The DAG was then added and the culture incubated again for 6 days. The melanin content of the cells was then evaluated in accordance with the procedure as previously described herein. The results are graphically illustrated by Figs. 2 and 3 respectively.

[6] = DAG added after pretreatment with 100 nM TPA for 24 hours, then 6 days
[7] = agent alone (DAG 6 days; TPA 100 nM pretreatment)

Row | Compound | induction of dendricity [1, 6] | dendricity of human melanocytes ([1]; DAG alone, 6 days at 37°C) | melanocyte proliferation or growth (Figs. 1a and 1b) ([2]; 25 - 200 »M, 6 days at 37°C) | human melanocyte proliferation (Fig. 2) [2, 6] | human melanocyte proliferation (Fig. 2) [2, 7] | melanin production in S91 melanoma cells in comparison to controls (Fig. 5) ([3]; DAG) | proliferation of S91 melanoma cells (Fig. 4) ([4]; concentrations ranging from 1-200 uM) | melanization / melanin content per human melanocyte (Fig. 3) ([5]; listed as DAG) | melanization / melanin content per human melanocyte (Fig. 3) ([5]; listed as diacylglycerol) | fold induction at 100 µM ([5]; Homo sapiens, 144 h, optimal concentration of 100 »M, 6 days at 37°C in complete melanocyte medium, read-out: increase in cellular melanin content per cell over the untreated control) | melanin content (Figs. 1a and 1b) ([5]; concentration levels 25 - 200 »M, 6 days at 37°C) | melanization ([5]; diacylglycerol alone, second experimental series, 6 days) | melanin production in S91 melanoma cells (Fig. 5) ([3]; 100 »M) | proliferation / cellular growth of S91 melanoma cells (Fig. 4) ([4]; 100 »M) | dendricity ([1]; TPA alone, 100 nM)
1 | CCCCCCCC/C=C\CCCCCCCC(=O)OCC(CO)OC(C)=O (stereo not shown) [1-oleoyl-2-acetyl-glycerol] | equally effective at melanization and the induction of dendricity | did not increase the dendricity | no meaningful effects on melanocyte proliferation or growth | neither the DAG analogue, nor the pretreatment with TPA, nor their combination has any substantial effect | neither the DAG analogue, nor the pretreatment with TPA, nor their combination has any substantial effect | consistently failed to induce any substantial increases in melanin production | effectively failed to induce proliferation | major and significant increases in melanin content per human melanocyte as a function of TPA pretreatment in amounts meaningfully greater than that of the chosen DAG analogue alone | equally effective at melanization | 4 | clear dose dependent response to increased melanin content | induced increased melanization | – | – | –
2 | CC(C)Cn1c(=O)n(C)c(=O)c2[nH]cnc21 [IBMX, 3-isobutyl-1-methylxanthine, reference compound] | – | – | – | – | – | – | – | – | – | – | – | – | caused a major increase in melanin production | failed to produce any cellular growth | –
3 | tetradecanoyl phorbol-13-acetate [TPA, reference compound] | – | – | – | – | neither the DAG analogue, nor the pretreatment with TPA, nor their combination has any substantial effect | – | – | – | – | – | – | – | – | – | induced extreme dendricity
